Assay results taken from patent US20260274814A1, “THIENYL COMPOUNDS FOR THE TREATMENT OF A CENTRAL NERVOUS SYSTEM DISEASE OR DISORDER” (Coreterra Therapeutics, Inc., priority 2023, published 2026).
Counter-ions that a name gives are not always drawn.

System: mice
Assay: Neuropharmacological Assay (SmartCube): automated behavioral signature of compound-treated mice compared with a database of reference drug classes
Format: in vivo
Conditions: for minimal effective dose: Mus musculus, ip, read-out: MED (minimal effective dose); for minimal effective dose / MED (minimal effective dose): dose having 45% or more total activity in SmartCube, i.p., if only one dose was tested, that dose is shown; for AD / AG / AN / AX / CE / HL / MS / PS / SH / AP / UK: probability that activity matches this class of agents, 3.0 mg/kg i.p., 15 min before test
Excerpt: Neurosci. 2011 Sep. 9; 5: 103 (doi: 10.3389/fnins.2011.00103) (“Roberds”). As reported in Roberds, because psychiatric diseases generally result from disorders of cell-cell communication or circuitry, intact systems are useful in detecting improvement in disease-relevant endpoints. These endpoints are typically behavioral in nature, often requiring human observation and interpretation. To facilitate testing of multiple compounds for behavioral effects relevant to psychiatric disease, PsychoGenics, Inc. (Tarrytown, NY, “PGI”) developed SmartCube™ an automated system in which behaviors of compound-treated mice are captured by digital video and analyzed with computer algorithms. (D. Brunner et al. Drug Discov. Today 2002, 7:S107-S112). PGI Analytical Systems uses data from SmartCube™ to compare the behavioral signature of a test compound to a database of behavioral signatures obtained using a large set of diverse reference compounds. (The composition of the database as well as validation of the method is further described in Roberds). In this way, the neuropharmacological effects of a test compound can be predicted by similarity to major classes of compounds, such as antipsychotics, anxiolytics and antidepressants.
The SmartCube™ system produces an activity signature indicating the probability that the activity of the test compound at the administered dose matches a given class of neuropharmacological agents. (See, e.g., Roberds, FIGS. 2 and 3). The test compound is simultaneously compared against multiple classes of agents; thus, a separate probability is generated for each behavioral effect measured (e.g., anxiolytic activity, analgesic activity, etc.). In table 2 below, these probabilities are reported for each behavioral effect measured as described in Table 1 below.
Provided compounds were dissolved in a mixture of Pharmasolve™ (N-methyl-2-pyrrolidone), polyethylene glycol and propylene glycol, and were injected i.p. 15 min. before the behavioral test. For each compound, injections were administered at 3 different doses. For each behavioral effect measured, results for the 3.0 mg/kg dose are presented. The potency of many of the compounds in the table was also determined in the SmartCube™ system. Test compounds were routinely examined at dose levels of 0.3, 1, 3 and 10 mg per kg (mpk), although the dose range was increased or decreased, if necessary, to obtain a full dose response curve. A compound's minimal effective dose (MED) is a measure of the compound's potency. The MED was defined as the dose (in mpk) having 45% or more total activity in SmartCube. If only one dose was tested, that dose is shown in the MED column of Table 2 even though the dose is not known to be the MED.

Row | Compound | minimal effective dose [mg/kg] | AD | AG | AN | AX | CE | HL | MS | PS | SH | AP (hydrochloride, 3 mg/kg) | UK (hydrochloride, 3 mg/kg) | MED (minimal effective dose) [mpk] | AP | UK | AD (hydrochloride, 3 mg/kg) | AX (hydrochloride, 3 mg/kg) | MED (minimal effective dose) (hydrochloride) [mpk] | other results
1 | CNC1CCc2cc(C#N)sc2C1 (single isomer, unassigned) [Compound 36, 6-(methylamino)-4,5,6,7-tetrahydrobenzothiophene-2-carbonitrile hydrochloride] | 3 | ND (^ <4%) | ND (^ <4%) | ND (^ <4%) | ND (^ <4%) | ND (^ <4%) | ND (^ <4%) | ND (^ <4%) | ND (^ <4%) | ND (^ <4%) | +++ (≥49%) | ++ (≥24%) | – | – | – | – | – | – | –
2 | CNC1CCc2cc(C#N)sc2C1 (single isomer, unassigned) [Compound 37, 6-(methylamino)-4,5,6,7-tetrahydrobenzothiophene-2-carbonitrile hydrochloride] | – | ND (^ <4%) | ND (^ <4%) | ND (^ <4%) | ND (^ <4%) | ND (^ <4%) | ND (^ <4%) | ND (^ <4%) | ND (^ <4%) | ND (^ <4%) | ND (^ <4%) | +++ (≥49%) | 3.0 | – | – | – | – | – | –
3 | CNC1CCc2cc(C(F)(F)F)sc2C1 (single isomer, unassigned) [Compound 38, N-methyl-2-(trifluoromethyl)-4,5,6,7-tetrahydrobenzothiophen-6-amine] | 3 | – | ND (^ <4%) | ND (^ <4%) | ND (^ <4%) | ND (^ <4%) | ND (^ <4%) | ND (^ <4%) | ND (^ <4%) | ND (^ <4%) | – | – | – | – | – | – | – | – | AD (3 mg/kg): ND (^ <4%); AP (3 mg/kg): ND (^ <4%); UK (3 mg/kg): ++ (≥24%)
4 | CNC1CCc2cc(C(F)(F)F)sc2C1 (single isomer, unassigned) [Compound 39, N-methyl-2-(trifluoromethyl)-4,5,6,7-tetrahydrobenzothiophen-6-amine] | – | – | ND (^ <4%) | ND (^ <4%) | ND (^ <4%) | ND (^ <4%) | ND (^ <4%) | ND (^ <4%) | ND (^ <4%) | ND (^ <4%) | – | – | 3.0 | – | – | – | – | – | AD (3 mg/kg): +++ (≥49%); AP (3 mg/kg): ++ (≥24%); UK (3 mg/kg): ND (^ <4%)
5 | CNC1CCc2csc(C)c2C1.Cl (single isomer, unassigned) [Compound 40, N, 3-dimethyl-4,5,6,7-tetrahydro-2-benzothiophen-5-amine hydrochloride] | 1 | – | ND (^ <4%) | ND (^ <4%) | – | ND (^ <4%) | ND (^ <4%) | ND (^ <4%) | ND (^ <4%) | ND (^ <4%) | – | – | – | ++ (≥24%) | ND (^ <4%) | ND (^ <4%) | +++ (≥49%) | – | –
6 | CNC1CCc2csc(C)c2C1.Cl (single isomer, unassigned) [Compound 41, N, 3-dimethyl-4,5,6,7-tetrahydro-2-benzothiophen-5-amine hydrochloride] | – | – | ND (^ <4%) | ND (^ <4%) | – | ND (^ <4%) | ND (^ <4%) | ND (^ <4%) | ND (^ <4%) | ND (^ <4%) | – | – | 1.0 | ++ (≥24%) | ND (^ <4%) | +++ (≥49%) | ND (^ <4%) | – | –
7 | CNC1CCc2c(sc(C)c2C)C1 (single isomer, unassigned) [Compound 42, N, 2,3-trimethyl-4,5,6,7-tetrahydrobenzothiophen-6-amine hydrochloride] | 3 | ++++ (≥74%) | ND (^ <4%) | ND (^ <4%) | ND (^ <4%) | ND (^ <4%) | – | ND (^ <4%) | ND (^ <4%) | ND (^ <4%) | – | – | – | ND (^ <4%) | ND (^ <4%) | – | – | – | HL (hydrochloride, 3 mg/kg): ND (^ <4%)
8 | CNC1CCc2c(sc(C)c2C)C1 (single isomer, unassigned) [Compound 43, N, 2,3-trimethyl-4,5,6,7-tetrahydrobenzothiophen-6-amine hydrochloride] | – | ++++ (≥74%) | ND (^ <4%) | ND (^ <4%) | ND (^ <4%) | ND (^ <4%) | – | ND (^ <4%) | ND (^ <4%) | ND (^ <4%) | – | – | 3.0 | ND (^ <4%) | ND (^ <4%) | – | – | – | HL (hydrochloride, 3 mg/kg): + (≥4%)
9 | CNC1CCc2c(C)csc2C1 (single isomer, unassigned) [Compound 44, N, 3-dimethyl-4,5,6,7-tetrahydrobenzothiophen-6-amine hydrochloride] | – | – | ND (^ <4%) | ND (^ <4%) | ND (^ <4%) | ND (^ <4%) | ND (^ <4%) | ND (^ <4%) | ND (^ <4%) | ND (^ <4%) | +++ (≥49%) | – | – | – | ND (^ <4%) | ++ (≥24%) | – | 1.0 | –
10 | CNC1CCc2c(C)csc2C1 (single isomer, unassigned) [Compound 45, N, 3-dimethyl-4,5,6,7-tetrahydrobenzothiophen-6-amine hydrochloride] | – | – | ND (^ <4%) | ND (^ <4%) | ND (^ <4%) | ND (^ <4%) | ND (^ <4%) | ND (^ <4%) | ND (^ <4%) | ND (^ <4%) | + (≥4%) | – | – | – | ND (^ <4%) | ++++ (≥74%) | – | 0.1 | –
11 | CNC1COc2ccsc2C1 (single isomer, unassigned) [Compound 46, N-methyl-6,7-dihydro-5H-thieno[3,2-b]pyran-6-amine hydrochloride] | – | – | ND (^ <4%) | ND (^ <4%) | – | ND (^ <4%) | ND (^ <4%) | ND (^ <4%) | ND (^ <4%) | ND (^ <4%) | – | ++ (≥24%) | – | ND (^ <4%) | – | ND (^ <4%) | + (≥4%) | 10 | –
12 | CNC1COc2ccsc2C1 (single isomer, unassigned) [Compound 47, N-methyl-6,7-dihydro-5H-thieno[3,2-b]pyran-6-amine hydrochloride] | – | – | ND (^ <4%) | ND (^ <4%) | – | ND (^ <4%) | ND (^ <4%) | ND (^ <4%) | ND (^ <4%) | ND (^ <4%) | – | ND (^ <4%) | – | ND (^ <4%) | – | ++++ (≥74%) | ND (^ <4%) | 0.3 | –
13 | CNC1(C)CCc2ccsc2C1 (single isomer, unassigned) [Compound 49, N, 6-dimethyl-5,7-dihydro-4H-benzothiophen-6-amine hydrochloride] | – | – | ND (^ <4%) | ND (^ <4%) | – | – | ND (^ <4%) | – | ND (^ <4%) | ND (^ <4%) | – | – | – | ND (^ <4%) | ND (^ <4%) | ++ (≥24%) | ++ (≥24%) | 1.0 | CE (hydrochloride, 3 mg/kg): + (≥4%); MS (hydrochloride, 3 mg/kg): + (≥4%)
